The target of assay [1] is C-C chemokine receptor type 1 (Rattus norvegicus). Kind of assay: Antagonistic activity at rat CCR1 in CHO-K1 cells.
The nature of assay [2]: Inhibitory effect on transwell chemotaxis induced by 1 nM MIP-1alpha in mouse pre-B cells transfected with human CCR1.

Five compounds from BindingDB's records for doi:10.1016/j.bmcl.2005.08.057 (Novartis Institutes For Biomedical Research, 2005) can be followed below.

In turn, `CC(=O)Nc1cc2ncccc2cc1/C=C/C(=O)N1CCN(Cc2ccc(F)cc2)C[C@H]1C` [(R)-N-(6-(3-(4-(4-fluorobenzyl)-2-methylpiperazin-1-yl)-3-oxoprop-1-enyl)quinolin-7-yl)acetamide] yielded an IC50 in assay [1] of 300 nM.
On the same count and under the same terms, next, `CC(=O)Nc1cc2ncccc2cc1/C=C/C(=O)N1C2CCC1CN(Cc1ccc(F)cc1)C2` [N-(6-(3-(3-(4-fluorobenzyl)-3,8-diaza-bicyclo[3.2.1]octan-8-yl)-3-oxoprop-1-enyl)quinolin-7-yl)acetamide]: 6 nM.
For `COc1cc(/C=C/C(=O)N2C3CCC2CN(Cc2ccc(F)cc2)C3)c(NC(C)=O)cc1Cl` [N-(2-(3-(3-(4-fluorobenzyl)-3,8-diaza-bicyclo[3.2.1]octan-8-yl)-3-oxoprop-1-enyl)-5-chloro-4-methoxyphenyl)acetamide], the results for the 50% inhibitory concentration (IC50) in assay [2] and in assay [1] were 7.5 nM and 1 nM, respectively.
`CN(C)CC(=O)Nc1cc(Cl)ccc1/C=C/C(=O)N1C2CCC1CN(Cc1ccc(F)cc1)C2` [N-(2-(3-(3-(4-fluorobenzyl)-3,8-diaza-bicyclo[3.2.1]octan-8-yl)-3-oxoprop-1-enyl)-5-chlorophenyl)-2-(dimethylamino)acetamide]: the midpoint of inhibition in assay [1], the IC50, lay at 10 nM.
The same measure, in the same setting: next, `CC(=O)Nc1cc2ccccc2cc1/C=C/C(=O)N1CCN(Cc2ccc(F)cc2)C[C@H]1C` [(R)-N-(3-(3-(4-(4-fluorobenzyl)-2-methylpiperazin-1-yl)-3-oxoprop-1-enyl)naphthalen-2-yl)acetamide]: 1500 nM.

Usually IC50 stands for the concentration at which inhibition is half-maximal. Low readings indicate greater potency in that assay, high ones weaker potency in that assay.
